Laboratory results published in PubChem BioAssay AID330 (DTP/NCI, 2004).
Where “and” joins values, the source holds several entries; their conditions need not be identical. Identical values can stand only once. Inconclusive results and toxic doses are left out. Square brackets hold non-standard residues; d marks the D form. Peptide text beside a SMILES is read from it. * marks the point of attachment. ξ: configuration not given here. Cbz = O=C(OCc1ccccc1)*; ξM = CSCCC(N)C(=O)O

Tested on: P388 leukemia ip, CD2F1 mice, survival T/C
Assay: NCI In Vivo Anticancer Drug Screen. Data for tumor model P388 Leukemia (intraperitoneal) in CD2F1 (CDF1) mice
Conditions: endpoint: median survival time, higher = longer survival
Outline: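 Mice carrying the transplanted tumor received test compound or vehicle. Survival was recorded in each group, and the value is the treated-group measurement divided by that of the vehicle-treated control group.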

[1] = dose: 12.5 mg/kg/injection, schedule: Q01DX009 (ip), vehicle: saline
[2] = dose: 50.0 mg/kg/injection, schedule: Q01DX009 (ip), vehicle: saline
[3] = dose: 25.0 mg/kg/injection, schedule: Q01DX009 (ip), vehicle: saline with Tween-80
[4] = dose: 50.0 mg/kg/injection, schedule: Q01DX009 (ip), vehicle: saline with Tween-80
[5] = dose: 100.0 mg/kg/injection, schedule: Q01DX009 (ip), vehicle: saline with Tween-80
[6] = dose: 50.0 mg/kg/injection, schedule: Q01DX009 (ip), vehicle: Klucel (hydroxypropylcellulose) (HPC)
[7] = dose: 100.0 mg/kg/injection, schedule: Q01DX009 (ip), vehicle: Klucel (hydroxypropylcellulose) (HPC)
[8] = dose: 200.0 mg/kg/injection, schedule: Q01DX009 (ip), vehicle: saline with Tween-80

c1ccc2cc(-c3cc(-c4cc(-c5ccc6ccccc6c5)on4)no3)ccc2c1
T/C (dose: 60.0 mg/kg/injection, schedule: Q01DX005 (ip), vehicle: Klucel + Tween-80): 100 % of control | T/C (dose: 120.0 mg/kg/injection, schedule: Q01DX005 (ip), vehicle: Klucel + Tween-80): 95 % of control | T/C (dose: 240.0 mg/kg/injection, schedule: Q01DX005 (ip), vehicle: Klucel + Tween-80): 91 % of control

Cn1cccc1/C=N/N1CC(=O)N(c2cccc(C(F)(F)F)c2)CC1=O
T/C (dose: 6.25 mg/kg/injection, schedule: Q01DX005 (ip), vehicle: saline with Tween-80): 98 % of control | T/C (dose: 12.5 mg/kg/injection, schedule: Q01DX005 (ip), vehicle: saline with Tween-80): 100 % of control

CCN=c1cc2sc3cc(NCC)c(C)cc3nc-2cc1C
T/C [1]: 97 % of control | T/C (dose: 25.0 mg/kg/injection, schedule: Q01DX009 (ip), vehicle: saline): 99 % of control | T/C [2]: 101 % of control | T/C (dose: 100.0 mg/kg/injection, schedule: Q01DX009 (ip), vehicle: saline): 90 % of control

CC(C)SC(=S)S(=O)(=O)c1ccc(Cl)cc1
T/C [3]: 104 % of control and 110 % of control | T/C [4]: 107 % of control (2×) and 111 % of control | T/C [5]: 104 % of control and 114 % of control and 121 % of control

CCOC(=O)C(N)CSCSC (stereo not given)
T/C (dose: 50.0 mg/kg/injection, schedule: Q01DX009 (ip), vehicle: water): 88 % of control | T/C (dose: 100.0 mg/kg/injection, schedule: Q01DX009 (ip), vehicle: water): 97 % of control | T/C (dose: 200.0 mg/kg/injection, schedule: Q01DX009 (ip), vehicle: water): 86 % of control | T/C (dose: 400.0 mg/kg/injection, schedule: Q01DX009 (ip), vehicle: water): 94 % of control

O=C(O)c1cc2cc([N+](=O)[O-])ccc2[se]1
T/C (dose: 12.5 mg/kg/injection, schedule: Q01DX009 (ip), vehicle: suspension in saline): 100 % of control | T/C (dose: 25.0 mg/kg/injection, schedule: Q01DX009 (ip), vehicle: suspension in saline): 101 % of control | T/C [2]: 86 % of control | T/C (dose: 50.0 mg/kg/injection, schedule: Q01DX009 (ip), vehicle: suspension in saline): 102 % of control | T/C (dose: 200.0 mg/kg/injection, schedule: Q01DX009 (ip), vehicle: saline): 100 % of control

COc1cc(C2N3Cc4ccccc4CN2c2ccccc23)cc(OC)c1OC
T/C (dose: 100.0 mg/kg/injection, schedule: Q01DX001 (ip), vehicle: Klucel (hydroxypropylcellulose) (HPC)): 101 % of control | T/C (dose: 200.0 mg/kg/injection, schedule: Q01DX001 (ip), vehicle: Klucel (hydroxypropylcellulose) (HPC)): 99 % of control | T/C (dose: 400.0 mg/kg/injection, schedule: Q01DX001 (ip), vehicle: Klucel (hydroxypropylcellulose) (HPC)): 102 % of control

CCCCCCC(/C=C/c1ccc(Cl)cc1)=N\O
T/C (dose: 25.0 mg/kg/injection, schedule: Q01DX009 (ip), vehicle: Klucel (hydroxypropylcellulose) (HPC)): 106 % of control | T/C [6]: 104 % of control | T/C [7]: 100 % of control and 108 % of control

CSC(=S)n1nc(C)c(N=Nc2cccc(C)c2C)c1C
T/C (dose: 100.0 mg/kg/injection, schedule: Q04DX002 (ip), vehicle: Klucel (hydroxypropylcellulose) (HPC)): 96 % of control | T/C (dose: 200.0 mg/kg/injection, schedule: Q04DX002 (ip), vehicle: Klucel (hydroxypropylcellulose) (HPC)): 96 % of control | T/C (dose: 400.0 mg/kg/injection, schedule: Q04DX002 (ip), vehicle: Klucel (hydroxypropylcellulose) (HPC)): 100 % of control

O=C(Nc1ccc2c(c1)Cc1ccccc1-2)c1cccc2ccccc12
T/C (dose: 0.75 mg/kg/injection, schedule: Q01DX005 (ip), vehicle: saline with Tween-80): 96 % of control | T/C (dose: 1.5 mg/kg/injection, schedule: Q01DX005 (ip), vehicle: saline with Tween-80): 96 % of control | T/C (dose: 3.0 mg/kg/injection, schedule: Q01DX005 (ip), vehicle: saline with Tween-80): 89 % of control | T/C (dose: 200.0 mg/kg/injection, schedule: Q01DX005 (ip), vehicle: saline with Tween-80): 90 % of control

O=C1NC(=O)C(=NC2C(=O)NC(=O)NC2=O)C(=O)N1
T/C (dose: 30.0 mg/kg/injection, schedule: Q01DX005 (ip), vehicle: saline): 96 % of control | T/C (dose: 60.0 mg/kg/injection, schedule: Q01DX005 (ip), vehicle: saline): 92 % of control and 95 % of control | T/C (dose: 120.0 mg/kg/injection, schedule: Q01DX005 (ip), vehicle: saline): 92 % of control | T/C (dose: 240.0 mg/kg/injection, schedule: Q01DX005 (ip), vehicle: saline): 86 % of control

CC1CCC2(CC1=O)C(C)CC(=O)C2C(C)C (stereo not given)
T/C [6]: 112 % of control | T/C [7]: 114 % of control | T/C (dose: 100.0 mg/kg/injection, schedule: Q04DX003 (ip), vehicle: other): 95 % of control | T/C (dose: 200.0 mg/kg/injection, schedule: Q01DX009 (ip), vehicle: Klucel (hydroxypropylcellulose) (HPC)): 98 % of control | T/C (dose: 200.0 mg/kg/injection, schedule: Q04DX003 (ip), vehicle: other): 90 % of control | T/C (dose: 400.0 mg/kg/injection, schedule: Q04DX003 (ip), vehicle: other): 100 % of control

CCCCN(CCCC)CCC(=O)c1ccc(OC)c2ccccc12
T/C (dose: 12.5 mg/kg/injection, schedule: Q01DX009 (ip), vehicle: saline with Tween-80): 110 % of control | T/C [3]: 119 % of control | T/C [4]: 111 % of control

CN1CCN(C)C(=O)C1=O
T/C (dose: 12.5 mg/kg/injection, schedule: Q04DX003 (ip), vehicle: suspension in saline): 108 % of control | T/C (dose: 25.0 mg/kg/injection, schedule: Q04DX003 (ip), vehicle: suspension in saline): 115 % of control | T/C (dose: 50.0 mg/kg/injection, schedule: Q04DX003 (ip), vehicle: suspension in saline): 110 % of control

CN1CCC(O)(/C=C\C2(O)CCN(C)CC2)CC1
T/C (dose: 100.0 mg/kg/injection, schedule: Q01DX001 (ip), vehicle: saline): 96 % of control | T/C (dose: 200.0 mg/kg/injection, schedule: Q01DX001 (ip), vehicle: saline): 89 % of control | T/C (dose: 400.0 mg/kg/injection, schedule: Q01DX001 (ip), vehicle: saline): 107 % of control

Nc1cnc2ccccn12
T/C [4]: 97 % of control | T/C [5]: 102 % of control

CC(=O)C1C(=O)C(=O)N(c2ccc(O)c(C(=O)O)c2)C1=O (stereo not given)
T/C (dose: 100.0 mg/kg/injection, schedule: Q04DX002 (ip), vehicle: saline with Tween-80): 100 % of control | T/C (dose: 200.0 mg/kg/injection, schedule: Q04DX002 (ip), vehicle: saline with Tween-80): 94 % of control | T/C (dose: 400.0 mg/kg/injection, schedule: Q04DX002 (ip), vehicle: saline with Tween-80): 93 % of control

Oc1ccc(C/C=C/c2ccccc2)cc1O
T/C (dose: 2.5 mg/kg/injection, schedule: Q01DX009 (ip), vehicle: saline + alcohol): 104 % of control | T/C (dose: 5.0 mg/kg/injection, schedule: Q01DX009 (ip), vehicle: saline + alcohol): 104 % of control | T/C (dose: 10.0 mg/kg/injection, schedule: Q01DX009 (ip), vehicle: saline + alcohol): 101 % of control

CC(=O)Nc1cn(C)cc1[N+](=O)[O-]
T/C [4]: 102 % of control | T/C [5]: 103 % of control | T/C [8]: 104 % of control

CSCCC(NC(=O)CNC(=O)CNC(=O)OCc1ccccc1)C(=O)O (stereo not drawn) (Cbz-Gly-Gly-[ξM]-OH)
T/C (dose: 50.0 mg/kg/injection, schedule: Q01DX005 (ip), vehicle: Klucel (hydroxypropylcellulose) (HPC)): 95 % of control | T/C (dose: 100.0 mg/kg/injection, schedule: Q01DX005 (ip), vehicle: Klucel (hydroxypropylcellulose) (HPC)): 98 % of control | T/C (dose: 200.0 mg/kg/injection, schedule: Q01DX005 (ip), vehicle: Klucel (hydroxypropylcellulose) (HPC)): 98 % of control

CC(Nc1ccc(Br)cc1[N+](=O)[O-])C(=O)O (stereo not given)
T/C [4]: 110 % of control | T/C [8]: 100 % of control

c1cc[c]([Sn]([NH]c2ncnc3[nH]cnc23)([NH]c2ncnc3[nH]cnc23)[c]2ccccc2)cc1
T/C [1]: 123 % of control | T/C [7]: 196 % of control

COC(=S)NCCn1c([N+](=O)[O-])cnc1C
T/C (dose: 100.0 mg/kg/injection, schedule: Q01DX001 (ip), vehicle: saline with Tween-80): 110 % of control | T/C (dose: 200.0 mg/kg/injection, schedule: Q01DX001 (ip), vehicle: saline with Tween-80): 100 % of control | T/C (dose: 400.0 mg/kg/injection, schedule: Q01DX001 (ip), vehicle: saline with Tween-80): 108 % of control

Nc1cc2ccccc2cc1NS(=O)(=O)N1CCCCC1
T/C (dose: 50.0 mg/kg/injection, schedule: Q01DX009 (ip), vehicle: acetone): 94 % of control | T/C (dose: 100.0 mg/kg/injection, schedule: Q01DX009 (ip), vehicle: acetone): 101 % of control | T/C (dose: 200.0 mg/kg/injection, schedule: Q01DX009 (ip), vehicle: acetone): 98 % of control

COc1cc(/C=C/C(=O)NCCCCN=[N+]=[N-])ccc1OCc1ccccc1
T/C (dose: 60.0 mg/kg/injection, schedule: Q01DX005 (ip), vehicle: saline with Tween-80): 93 % of control | T/C (dose: 120.0 mg/kg/injection, schedule: Q01DX005 (ip), vehicle: saline with Tween-80): 96 % of control | T/C (dose: 240.0 mg/kg/injection, schedule: Q01DX005 (ip), vehicle: saline with Tween-80): 97 % of control
